The test system of data set [1] is A2780 human ovarian carcinoma model. Format: in vivo. The settings on record: Compound A1 single agent 1 mg/kg and 2.5 mg/kg (8 days); triple combination (17 treatment days). The method, then:
Cisplatin and paclitaxel were administered in combination at their respective MTD, cisplatin intraperitoneally (IP) every second week (Q2W) and paclitaxel IV QW.

The test system of data set [2] is human glioblastoma model U87 MG. The data set is described as follows: Combination with vincristine in human glioblastoma model U87 MG (intracerebral). Format: in vivo, nude mice. The protocol:
The study was designed to determine the response of this glioblastoma model to the treatment with the investigational Compound A1 and vincristine, both alone at a fixed dose, and vincristine in combination with two different doses, both lower than that of Compound A1 used in the monotherapy schedule. The size of the glioblastoma was used as read out parameter for response.
The cell culture derived human xenograft U87 MG was initiated by transplantation of the tumor cells into the left hemisphere of the mouse brain. Treatment was done in three cycles between day 3 and day 19. Mice were sacrificed at day 24, the brain isolated and shock frozen in 2 methyl-butane. Tumor size were determined as measure for tumor growth inhibition from cryo-slizes after staining.

In data set [3] the test system is primary human NSCLC xenograft model LU387. Briefly: Combination with paclitaxel in primary human NSCLC xenograft model LU387. Format: in vivo, nude mice. Conditions: for mean tumor size: day 42 post treatment. The protocol:
The effect of Compound A1 and paclitaxel compared with a vehicle was evaluated in the subcutaneous primary human NSCLC xenograft model LU387 on nude mice.
A general note: Xenograft models place foreign cells or tissue in a host animal.

Data set [4] relates to MKN1 human gastric carcinoma model. The data set is described as follows: Combination with paclitaxel in MKN1 human gastric carcinoma model. Conditions: Compound A1 single agent 1 mg/kg or 2.5 mg/kg (40 days); paclitaxel and combination (78 treatment days).
Procedure: Compound A1 was administered PO in the 2QD intermittent (2 days on/5 days off) dosing schedule up to the respective MTD in single-agent treatment and at a dose of 40% of the single-agent MTD in combination. Paclitaxel was administered IV QW at its respective MTD. Treatment for all groups started at a tumor size of 27 mm^2, on day 7 after tumor cell inoculation. For combination treatment, Compound A1 and paclitaxel were administered on the same day within a time of 4 hours. Animals of the control and Compound A1 single-agent treatment groups were treated for 40 days. Animals of the paclitaxel single-agent and Compound A1 with paclitaxel combination treatment groups were treated for 78 days.
A short description of data set [5]: Maximum tolerated dose (MTD). It counts as in vivo, nude mice. The settings on record: nude, mouse, in vivo; Compound A1 PO 2QD 2 days on/5 days off; paclitaxel IV QW; docetaxel i.v. 1 day on/6 days off; read-out: MTD (maximum tolerated dose), single-agent.
The mark [6] stands for this setting: day 24, single agents: Gr. B Compound A1 2.5 mg/kg p.o., Gr. C Vincristine 0.75 mg/kg i.p.

Broadly, the MTD is the highest dose tested that stayed within the study's limit of toxicity. In the case of `COc1cc(S(C)(=O)=O)ccc1Nc1nc2ccc(-c3ccc(NC(=O)[C@H](C)c4ccc(F)cc4)cc3)cn2n1` [Compound A1], the “anti-tumor efficacy (in words)” value in data set [1] is listed as “weak single-agent efficacy”. For the same molecule, the “tumor growth inhibition (in words)” value in data set [2] (Compound A1 single drug 2.5 mg/kg, combination with vincristine) is recorded as “no inhibitory effect”. Besides, the “BWC [%] (at day), nadir of body weight” value in data set [2] (Gr. B: Compound A1 2.5 mg/kg p.o. BIDx2x3) is given as −7.7 (d24) %. Moreover, the “Brain tumor inside [mm^2]” value in data set [2] (day 24, single agents: Gr. B Compound A1 2.5 mg/kg p.o. BIDx2x3, Gr. C Vincristine 0.75 mg/kg i.p. 1xqWx3) was 15.89 +/− 9.93 mm^2. Also, in data set [2] (setting [6]), the “Brain tumor outside [mm^2]” value is 5.50 +/− 4.09 mm^2, the “Brain tumor total [mm^2]” value is reported as 20.64 +/− 12.14 mm^2 and the “T/C (inside T) [%]” value is reported as 91.3%. Moreover, the “antitumor activity (in words)” value in data set [3] (Compound A1 single agent 1 mg/kg and 2.5 mg/kg, combination with paclitaxel) is “no significant antitumor activity”. Besides, the T/Cvolume in data set [3] (day 42, Compound A1 2.5 mg/kg (high dose)) is given as 0.73. In addition, the mean tumor size in data set [3] (Compound A1 1 mg/kg PO 2QD 2 days on/5 days off over 6 weeks) was 1788 mm^3. For the same molecule, the mean tumor size in data set [3] (Compound A1 2.5 mg/kg PO 2QD 2 days on/5 days off over 6 weeks) is listed as 1137 mm^3. In addition, the “anti-tumor efficacy (in words)” value in data set [4] was “no effect on tumor growth inhibition”. Besides, the MTD in data set [5] turned out to be 2.5 mg/kg.

The values are drawn from patent US20160128988A1, “COMBINATIONS FOR THE TREATMENT OF CANCER COMPRISING A MPS-1 KINASE INHIBITOR AND A MITOTIC INHIBITOR” (BAYER PHARMA AKTIENGESELLSCHAFT, priority 2013, published 2016).
